Where “and” joins values, the source holds several entries; their conditions need not be identical. Equal entries are not always repeated. Where two headings read alike, the source gives them in different places.
Key:
K-562 = assay: Calcein AM cytotoxicity, K-562; format: cell-based; conditions: read-out: IC 50, K-562
Description: (§1) One of the parameters used, as the basis for cytotoxicity assays, is the metabolic activity of viable cells. For example, a microtiter assay, which uses the Calcein AM, is now widely used to quantitate cell proliferation and cytotoxicity. For instance, this assay is used in drug screening programs and in chemosensitivity testing. Because only metabolically active cells cleave Calcein AM, these assays detect viable cells exclusively. The quantity of reduced Calcein AM corresponds to the number of vital cells in the culture.
(§2) The cells were maintained in Nunc/Corning 80 cm^2 plastic tissue culture flasks and cultured in cell culture medium (DMEM with 5 g/l glucose, 2 mM glutamine, 100 U/ml penicillin, 100 μg/ml streptomycin, 10% fetal calf serum and sodium bicarbonate).
(§3) The cell suspensions that were prepared and diluted according to the particular cell type and the expected target cell density (2.500-30.000 cells per well based on cell growth characteristics) were added by pipette (80 μl) into 96/well microtiter plates. Inoculates were allowed a pre-incubation period of 24 hours at 37° C. and 5% CO2 for stabilisation. Four-fold dilutions of the intended test concentration were added at time zero in 20 μl aliquots to the microtiter plate wells. Usually, test compound was evaluated at six 4-fold dilutions. […] All drug concentrations were examined in duplicates. Incubations of cells with the test compounds lasted for 72 hours at 37° C., in 5% CO2 atmosphere and 100% humidity. At the end of incubation period, the cells were assayed by using the Calcein AM. Ten microliters of the stock solution were pipetted into each well and incubated further for 1 hours. Fluorescence (FD) was measured with the Labsystem FIA Reader Fluoroscan Ascent (UK).

[1] = system: breast carcinoma cell line MCF-7; assay: Calcein AM cytotoxicity, MCF7; format: cell-based, human; conditions: read-out: IC 50, MCF7
Description: as §1, §2, §3

B16-F0 melanoma = assay: Calcein AM cytotoxicity, B16-F0; format: cell-based; conditions: Mus musculus, B16F0, 72 h, read-out: IC 50, B16-F0
Description: as §1
(§4) Human T-lymphoblastic leukemia cell line CEM; promyelocytic HL-60 and monocytic U937 leukemias; breast carcinoma cell lines MCF-7, BT549, MDA-MB-231; glioblastoma U87MG cells; cervical carcinoma cells HELA; sarcoma cells U2OS and Saos2; hepatocellular carcinoma HepG2; mouse fibroblasts NIH3T3; mouse immortalized bone marrow macrophages B2.4 and B10A.4; P388D1 and L1210 leukemia; B16 and B16F10 melanomas were used for routine screening of compounds. The cells were maintained in Nunc/Corning 80 cm^2 plastic tissue culture flasks and cultured in cell culture medium (DMEM with 5 g/l glucose, 2 mM glutamine, 100 U/ml penicillin, 100 μg/ml streptomycin, 10% fetal calf serum and sodium bicarbonate).
(§5) The cell suspensions that were prepared and diluted according to the particular cell type and the expected target cell density (2.500-30.000 cells per well based on cell growth characteristics) were added by pipette (80 μl) into 96/well microtiter plates. Inoculates were allowed a pre-incubation period of 24 hours at 37° C. and 5% CO2 for stabilisation. Four-fold dilutions of the intended test concentration were added at time zero in 20 μl aliquots to the microtiter plate wells. Usually, test compound was evaluated at six 4-fold dilutions. In routine testing, the highest well concentration was […], but it can be the matter of change dependent on the agent. All drug concentrations were examined in duplicates. Incubations of cells with the test compounds lasted for 72 hours at 37° C., in 5% CO2 atmosphere and 100% humidity. At the end of incubation period, the cells were assayed by using the Calcein AM. Ten microliters of the stock solution were pipetted into each well and incubated further for 1 hours. Fluorescence (FD) was measured with the Labsystem FIA Reader Fluoroscan Ascent (UK). The tumour cell survival (GI50) was calculated using the following equitation: TCS═(FDdrug exposed well/mean FDcontrol wells)×100%. The GI50 value, the drug concentration lethal to 50% of the tumour cells, was calculated from the obtained dose response curves (FIG. 1).

[2] = system: T-lymphoblastic leukemia cell line CEM; assay: Calcein AM cytotoxicity, CEM; format: cell-based, human
Description: as §1, §2, §3

[3] = system: promyelocytic HL-60 leukemia; assay: Calcein AM cytotoxicity, HL60; format: cell-based, human; conditions: read-out: IC 50, HL60
Description: as §1, §2, §3

[4] = system: Triticum aestivum cv. Hereward leaf tips; assay: Retention of chlorophyll in excised wheat leaf tips; format: in vivo; conditions: chlorophyll retention at the concentration with highest activity
Experimental: Seeds of winter wheat, Triticum aestivum cv. Hereward, were washed under running water for 24 hours and then sown on vermiculite soaked with Knop's solution. They were placed in the grown chamber at 25° C. with a 16/8 h light period at 50 μmol.m^−2.s^−1. After 7 days, the first leaf was fully developed and the second leaf had started to grow. A tip section of the first leaf, approximately 35 mm long, was removed from 5 seedlings and trimmed slightly to a combined weight of 100 mg. The basal ends of the five leaf tips were placed in the wells of a microtiter polystyrene plate containing 150 μl of a cytokinin solution each. The entire plate was inserted into a plastic box lined with paper tissues soaked in distilled water to prevent leaf sections from drying out. After a 96 h incubation in the dark at 25° C., the leaves were removed and chlorophyll extracted by heating at 80° C. for 10 min in 5 ml of 80% ethanol (v/v). The sample volume was then restored to 5 ml by the addition of 80% ethanol (v/v). The absorbency of the extract was recorded at 665 nm. In addition, chlorophyll extracts from fresh leaves and leaf tips incubated in deionised water were measured. From the obtained data, the concentration with highest activity was selected for each compound tested. Relative activity of the compound at this concentration was calculated (Tab. 6). The activity obtained for 10^−4 M 6-benzylaminopurine (BAP) was postulated as 100%. The values shown are means of five replicates and the whole experiment was repeated twice. The cytokinins to be tested were dissolved in dimethylsulfoxide (DMSO) and the solution brought up to 10^−3M with distilled water. This stock was further diluted in distilled water to concentrations ranging from 10^−8M to 10^−4M.

[5] = system: Amaranthus caudatus cotyledon/hypocotyl explants; assay: Amaranthus bioassay, betacyanin content; format: in vivo; conditions: betacyanin content at the concentration with highest activity
Experimental: Standard Amaranthus bioassay was performed with several modifications. The seeds of Amaranthus caudatus var. atropurpurea were surface-sterilised in 10% N-chlorobenzenesulfonamide (w/v) for 10 min and washed 5 times in deionized water. They were placed in 14 cm Petri dishes containing paper tissues saturated with deionized water. After 72 h of cultivation at 25° C. in darkness, the roots of the seedlings were cut off. The explants, consisting of two cotyledons and hypocotyls, were placed in 5 cm Petri dishes on two layers of filter paper soaked in 1 ml of incubation medium containing 10 μmol NA2HPO4-KH2PO4, pH 6.8, 5 μmol tyrosine and the cytokinin to be tested. There were 20 explants per dish. The procedure was carried out under a green safe light in a darkroom. After a 48 h of incubation at 25° C. in darkness, betacyanin was extracted by freezing the explants in 4 ml […] acetic acid. The concentration of betacyanin was determined by comparing the absorbance at 537 nm and 620 nm as follows: ΔA=[…] nm-A620 nm. From the obtained data, the concentration with highest activity was selected for each compound tested. Relative activity of the compound at this concentration was calculated (Tab. 6). […] The values shown in table 8 are means of five replicates and the entire test was repeated twice. The cytokinins to be tested were dissolved in dimethylsulfoxide (DMSO) and the solution brought up to 10^-3M with distilled water. This stock was further diluted in the respective media used for the biotest to concentrations ranging from 10^-8M to 10^-4M.

HOS = assay: Calcein AM cytotoxicity, HOS; format: cell-based
Description: as §1, §4, §5

[6] = system: tobacco callus Nicotiana tabacum L. cv. Wisconsin 38; assay: Cytokinin-dependent tobacco callus growth; format: cell-based; conditions: fresh callus weight at the concentration with highest activity
Experimental: Cytokinin-dependent tobacco callus Nicotiana tabacum L. cv. Wisconsin 38 was maintained at 25° C. in darkness on modified Murashige-Skoog medium, containing per 1 liter: 4 μmol nicotinic acid, 2.4 μmol pyridoxine hydrochloride, 1.2 μmol thiamine, 26.6 μmol glycine, 1.37 μmol glutamine, 1.8 μmol myo-inositol, 30 g of sucrose, 8 g of agar, 5.37 μmol α-naphtylacetic acid (NAA) and 0.5 μmol benzylaminopurine (BAP). Subcultivation was carried out every three weeks. Fourteen days before the bioassay, the callus tissue was transferred to the media without 6-benzylaminopurine (BAP). Biological activity was determined from the increase in fresh callus weight after four weeks of cultivation. Five replicates were prepared for each cytokinin concentration and the entire test was repeated twice. From the obtained data, the concentration with highest activity was selected for each compound tested. Relative activity of the compound at this concentration was calculated (Tab. 6). The activity obtained for 10^−4 M 6-benzylaminopurine (BAP) was postulated as 100%. The cytokinins to be tested were dissolved in dimethylsulfoxide (DMSO) and the solution brought up to 10^−3M with distilled water. This stock was further diluted in the respective media used for the biotest to concentrations ranging from 10^−8M to 10^−4M.

SMILES	IC50 (K-562; Homo sapiens, K562, 72 h) [µM]	IC50 ([1]; Homo sapiens, MCF7, 72 h) [µM]	IC50 (B16-F0 melanoma) [µM]	IC50 ([2]; Homo sapiens, 72 h) [µM]	IC50 ([3]; Homo sapiens, HL-60, 72 h) [µM]	Activity (%) [10^−4 mol · l^−1 BAP = 100%] [4]	activity (%) [10^−5 mol · l^−1 BAP = 100%] [5]	IC50 (HOS; Homo sapiens, HOS, 72 h) [µM]	Activity (%) [10^−4 mol · l^−1 BAP = 100%] [6]	further results
O=[N+]([O-])c1ccc(CNc2ncnc3nc[nH]c23)cc1 [6-(4-nitrobenzylamino)purine]	> 167	> 167	> 167	> 167	> 167	83 (±8) %	25 (±2) %			
COc1ccc(CNc2ncnc3nc[nH]c23)cc1O [6-(3-hydroxy-4-methoxybenzylamino)purine]	> 167	> 167	> 167	> 167	> 167		24 (±1) %			
c1coc(CNc2ncnc3[nH]cnc23)c1 [Kinetin, reference compound]	> 167	> 167						> 167		IC50 (K-562; Homo sapiens, K562, 72 hours): 164 µM; IC50 ([2]; Homo sapiens, 72 hours): 155 µM
Clc1ccccc1CNc1ncnc2nc[nH]c12 [6-(2-chlorobenzylamino)purine]			16.9			116.5 (±6.5) %	109 (±8) %		93 (±4) %	
CC(C)=CCNc1ncnc2nc[nH]c12 [IP, isopentenyladenine, reference compound]										IC50 (HOS; 72 hours): > 167 µM; IC50 (K-562; 72 hours): 147 µM and 162 µM; IC50 ([1]; 72 hours): > 167 µM; IC50 ([2]; 72 hours): 92.2 µM; IC50 ([3]; 72 hours): > 167 µM
Clc1cccc(CNc2ncnc3nc[nH]c23)c1 [6-(3-chlorobenzylamino)purine]	> 167					82 (±2) %	96 (±5) %	> 167	94 (±6) %	

From patent US8552013B2, “Heterocyclic compounds based on N6-substituted adenine, methods of their preparation, their use for preparation of drugs, cosmetic preparations and growth regulators, pharmaceutical preparations, cosmetic preparations and growth regulators containing these compounds” (USTAV Experimentalni Botaniky Akademie Ved Ceske Republiky, priority 2001, dated 2013)
